Experiments:
[1] = Cyclic voltammetry (CV), redox potential of mediator molecule; assay type: physicochemical; details: 0.09 mM mediator in Tris buffer solution (pH 8.5); glassy carbon electrode; Ag|AgCl (saturated KCl) reference; 5 mV/s
From the text: [Cyclic Voltammetry (CV), Redox Potential of Mediator Molecule]
The obtained voltammogram represents the potential on an abscissa axis and the current on an ordinate axis. The CV involves relatively easy experiments and sharply reflects not only equilibrium parameters such as the redox potential or diffusion information but also kinetic parameters of an electrode reaction or of a chemical reaction in solution. Thus, the CV is a method of electrochemical measurement allowing an intuitive grasp of the electrode reaction.
The CV for mediator evaluation involves measuring in an electrolytic solution consisting of the buffer with various mediators, diaphorase, and NADH added.
A potentiostat mode of Hokuto Denko HZ-3000 was used. A glassy carbon electrode (GDE, electrode area of about 0.083 cm^2) was used as a working electrode. The GDE was polished with an aluminum powder of 0.05 μm and subjected to ultrasonic cleaning in deionized water before every measurement. A three electrode cell was used, and a Pt electrode and an Ag|AgCl (saturated KCl) electrode were used as a counter electrode and a reference electrode, respectively for the measurement. A potential was changed at a rate of 5 mV/s. A measurement sample was subjected to sufficient bubbling with N2 gas before the measurement to remove dissolved oxygen, and the N2 gas overflowed during the measurement. All measurements began from an open circuit potential.
Cyclic voltammograms with (a) in FIGS. 5A to 5F are measurement of 0.09 mM solutions of the various mediators prepared using a Tris buffer solution (pH 8.5).

[2] = tested on: Dp (DIAPHORASE I, [EC 1.6.99.-]); assay: Reaction kinetic analysis between diaphorase (Dp) and mediator by CV; assay type: biochemical, Bacillus stearothermophilus; details: comparison of FMA with AQS, FIG. 6
From the text: A technique of reaction kinetic analysis between an enzyme and a mediator molecule using CV will be described referring to a document (Kazuyoshi Takagi, Kenji Kano, Tokuji Ikeda, J. Electroanal. Chem., 1988, 445, 211-219). Dp catalyses an oxidation reaction of NADH in the presence of an appropriate mediator (Mox) as represented by the following equation (4).
An NADH oxidation rate (νE, ox) may be represented by the following equation (5) on an assumption that an enzyme reaction follows a ping-pong mechanism.
In addition, vE, ox of equation (5) can be approximated as the following equation (6) when Mox concentration is negligibly small ([Mox]<<KM, ox) in the vicinity of the electrode surface.
From the above, kcat, ox/KM, ox clearly represents a reaction rate constant between DPred and Mox. Further, steady state limiting current of catalyst (Is, ox) observed at a more positive potential from the redox potential of the mediator molecule can be represented by the following equation (7).
The reaction rate constant kcat, ox/KM, ox can be estimated from the measured limiting current value using the above equation (7).
On the other hand, cyclic voltammograms with (b) in FIGS. 5A to 5F are measurement results of the above mediator solutions with 0.11 μM of Dp ([…], [EC 1.6.99.-], from Bacillus stearothermophilus, available from Unitika Ltd.) and 4.8 mM of NADH added. […]

With `CC1=C(CCCN)C(=O)c2ccccc2C1=O` [APVK3, 2-(3-aminopropyl)-3-methyl-1,4-naphthoquinone] the “redox formal potentials (E^0M′) approximated at middle points of oxidation peaks and reduction peaks” value [1] was −0.32 V.
For `O=C1c2ccccc2C(=O)c2cc(S(=O)(=O)[O-])ccc21.[Na+]` [AQS, sodium anthraquinone-2-sulfonate], the “redox formal potentials (E^0M′) approximated at middle points of oxidation peaks and reduction peaks” value [1] was −0.49 V.
For `CC1=C(CCCC(=O)O)C(=O)c2ccccc2C1=O` [CPVK3, 2-(3-carboxypropyl)-3-methyl-1,4-naphthoquinone], the “redox formal potentials (E^0M′) approximated at middle points of oxidation peaks and reduction peaks” value [1] was −0.32 V.
For `CC1=C(CCCC(=O)NCCN)C(=O)c2ccccc2C1=O` [AEACPVK3, 2-{3-[N-(2-aminoethyl)aminocarbonyl]propyl}-3-methyl-1,4-naphthoquinone], the “redox formal potentials (E^0M′) approximated at middle points of oxidation peaks and reduction peaks” value [1] was −0.32 V.
For `OC[c-]1cccc1.[Fe+2].c1cc[cH-]c1` [FMA, ferrocene methanol], the “redox formal potentials (E^0M′) approximated at middle points of oxidation peaks and reduction peaks” value [1] was 0.23 V and the “reaction rate constant larger than that of the AQS by” value [2] was at least 1 digit.
In the case of `CC1=CC(=O)c2ccccc2C1=O` [VK3, 2-methyl-1,4-naphthoquinone], the “redox formal potentials (E^0M′) approximated at middle points of oxidation peaks and reduction peaks” value [1] is reported as −0.28 V.

— patent US7544438B2, “Electron mediator, electron mediator immobilized electrode, and biofuel cell using the electrode” (Daiichi Pure Chemicals Co., Ltd, priority 2003, dated 2009)
